The text below walks through data of PMC12757481, “The dihydropyridine LA1011 modulates multiple Hsp90—co-chaperone interactions relevant to Alzheimer’s disease” (Cell Stress & Chaperones, 2025).

Read-outs that look alike come from different tables or passages of the source.

Series [1] has as its target T1, Hsp90 (Saccharomyces cerevisiae, UniProt P02829).
T1 construct: made in house
Description: ITC, co-chaperone binding to Hsp90. Details: species or system yeast. (In ITC the heat of successive injections is recorded.)

Another series addresses T2, Hsp90-LA1011 (Saccharomyces cerevisiae, UniProt P02829).
T2 construct: made in house
As to the kind of experiment: ITC, co-chaperone binding to Hsp90-LA1011 complex. Set-up: species or system yeast.

Series [2] concerns the target T1, Hsp90. Description: Lactate-dehydrogenase and pyruvate-kinase-linked Hsp90 ATPase assay. Format: biochemical, yeast. The note with it: for effect of LA1011 on the co-chaperone directed regulation of Hsp90 ATPase activity: 2 μM Hsp90, 240 μM LA1011, co-chaperone 0.25 to 30 μM, normalized data compared with control lacking LA1011; for effect on Hsp90 ATPase activity: 2 μM Hsp90. Here is the method:
ATPase assays using 2 μM Hsp90 were conducted as previously described using the lactate-dehydrogenase and pyruvate-kinase-linked assay.[12] Briefly, 240 μM of LA1011 was used in assays as required. Co-chaperones were added to Hsp90 and Hsp90-LA1011 complex at a variety of concentrations ranging from 0.25 to 30 μM. Assays utilizing LA1011 were normalized by recalculating the activity for all data points so that the data points were converted to a percentage of the activity relative to the first data point, which lacked any addition of co-chaperone. The first data point was therefore 100% max Hsp90 activity. All assays were conducted at least in triplicate.
To assess the effect of LA1011 on the mechanistic action of co-chaperones, we used the lactate-dehydrogenase and pyruvate-kinase-linked Hsp90 ATPase assay. We first assessed the effect of each co-chaperone on Hsp90 ATPase activity and then compared its effect on a Hsp90-LA1011 complex.

The target of series [3] is T1, Hsp90. Description: ITC, LA1011 binding to nucleotide-free Hsp90. Conditions: ITC 30 °C, 2 mM LA1011 injected into 30 μM Hsp90. Details: species or system yeast.
A further series concerns the target T3, Hsp90-AMPPNP (Saccharomyces cerevisiae, UniProt P02829).
T3 construct: made in house
Description: ITC, LA1011 binding to Hsp90-AMPPNP. Details: species or system yeast. Conditions: 30 μM Hsp90, 5 mM AMPPNP.

The target of a further series is T4, Hsp90-FKBP51 (Saccharomyces cerevisiae, UniProt P02829).
T4 construct: made in house
Description: ITC, LA1011 binding to Hsp90-FKBP51 complex. The note with it: 30 μM Hsp90, 60 μM FKBP51, 2:1 fit. Set-up: species or system yeast.

The next series addresses T5, Hsp90-FKBP52 (Saccharomyces cerevisiae, UniProt P02829).
T5 construct: made in house
Description: ITC, LA1011 binding to Hsp90-FKBP52 complex. Details: species or system yeast. Conditions: 30 μM Hsp90, 60 μM FKBP52, 2:1 fit.

The target of a further series is T6, Hsp90-CHIP (Saccharomyces cerevisiae, UniProt P02829).
T6 construct: made in house
Description: ITC, LA1011 binding to Hsp90-mouse CHIP complex. Details: species or system yeast. The note with it: 20 μM Hsp90, 60 μM CHIP.

The next series concerns the target T7, Hsp90-p23-PNP (Saccharomyces cerevisiae, UniProt P02829).
T7 construct: made in house
Description: ITC, LA1011 binding to AMPPNP-Hsp90-p23 complex. Conditions: 30 μM Hsp90, 200 μM p23, 5 mM Mg-PNP. Set-up: species or system yeast.

The target in a further series is T8, Hsp90-Aha1 (Saccharomyces cerevisiae, UniProt P02829).
T8 construct: made in house
Description: ITC, LA1011 binding to nucleotide-free Hsp90-yeast Aha1 complex. Conditions: 20 μM Hsp90, 40 μM yAha1, nucleotide-free.

In a further series the target is T9, Hsp90-CDC37 (Saccharomyces cerevisiae, UniProt P02829).
T9 construct: made in house
Description: ITC, LA1011 binding to Hsp90-CDC37 complex. Set-up: species or system yeast.

The target in another series is T10, Hsp90-Sgt1 (Saccharomyces cerevisiae, UniProt P02829).
T10 construct: made in house
Description: ITC, LA1011 binding to Hsp90-Sgt1 complex. Set-up: species or system yeast. Conditions: 30 μM Hsp90, 60 μM Sgt1, 100 mM NaCl, 2:1 fit.

Another series deals with Hsp90-HOP (Saccharomyces cerevisiae, UniProt P02829). The note with it: ITC, 20 μM Hsp90, 40 μM HOP.
The next series concerns APPxPS1 AD mouse model. Set-up: method as in PMID 27163800. The note with it: APPxPS1 mice, versus untreated mice; cited from earlier work.
Series [4] concerns the target Hsp90. Details: method as in PMID 29930942. Conditions: previously measured; cited from earlier work.
The next series has as its target T11, Hsp90-PNP (Saccharomyces cerevisiae, UniProt P02829).
T11 construct: made in house
Description: ITC, co-chaperone binding to Hsp90-AMPPNP. The note with it: 5 mM AMPPNP, no LA1011, for Aha1 the Hsp90-PNP was the injectant. Details: species or system yeast.

The next series concerns the target T12, Hsp90-LA1011-PNP (Saccharomyces cerevisiae, UniProt P02829).
T12 construct: made in house
Description: ITC, co-chaperone binding to Hsp90-AMPPNP-LA1011 complex. Details: species or system yeast. Conditions: 5 mM AMPPNP, 2 mM LA1011, for Aha1 the Hsp90-LA1011-PNP was the injectant.

The mark [5] stands for this setting: ITC 30 °C, co-chaperone and Hsp90 without LA1011, one-site fit, read-out: Kd.
The mark [6] stands for this setting: ITC 30 °C, Hsp90 in complex with 2 mM LA1011, one-site fit, read-out: Kd.

T1 sequence (P02829 whole entry): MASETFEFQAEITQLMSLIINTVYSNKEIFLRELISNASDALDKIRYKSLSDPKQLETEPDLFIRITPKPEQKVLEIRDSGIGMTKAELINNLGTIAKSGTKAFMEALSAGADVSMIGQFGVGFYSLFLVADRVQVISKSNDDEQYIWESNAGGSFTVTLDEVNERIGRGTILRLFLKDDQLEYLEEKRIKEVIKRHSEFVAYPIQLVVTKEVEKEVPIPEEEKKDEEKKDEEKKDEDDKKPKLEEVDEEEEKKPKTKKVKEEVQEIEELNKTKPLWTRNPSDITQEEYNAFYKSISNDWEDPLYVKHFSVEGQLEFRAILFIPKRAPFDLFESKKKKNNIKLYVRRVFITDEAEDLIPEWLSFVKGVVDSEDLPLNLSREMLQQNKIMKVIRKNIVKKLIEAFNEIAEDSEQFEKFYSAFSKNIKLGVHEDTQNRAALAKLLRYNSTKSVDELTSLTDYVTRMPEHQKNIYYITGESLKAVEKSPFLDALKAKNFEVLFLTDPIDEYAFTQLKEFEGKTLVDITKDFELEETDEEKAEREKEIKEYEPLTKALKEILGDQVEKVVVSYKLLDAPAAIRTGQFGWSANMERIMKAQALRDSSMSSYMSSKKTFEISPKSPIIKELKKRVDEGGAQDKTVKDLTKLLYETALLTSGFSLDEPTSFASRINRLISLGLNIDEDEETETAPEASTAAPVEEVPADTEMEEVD
T2 sequence (P02829 whole entry): as above
T11 sequence (P02829 whole entry): as above
T7 sequence (P02829 whole entry): as above
T7 sequence (P28707 whole entry partner): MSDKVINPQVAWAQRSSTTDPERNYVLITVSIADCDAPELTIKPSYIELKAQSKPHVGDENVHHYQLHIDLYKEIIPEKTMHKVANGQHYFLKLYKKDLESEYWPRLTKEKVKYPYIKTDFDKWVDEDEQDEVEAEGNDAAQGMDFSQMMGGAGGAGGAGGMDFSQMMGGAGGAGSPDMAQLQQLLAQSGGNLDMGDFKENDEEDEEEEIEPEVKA
T6 sequence (P02829 whole entry): as the sequence (P02829 whole entry) above
T6 sequence (Q9WUD1 whole entry partner): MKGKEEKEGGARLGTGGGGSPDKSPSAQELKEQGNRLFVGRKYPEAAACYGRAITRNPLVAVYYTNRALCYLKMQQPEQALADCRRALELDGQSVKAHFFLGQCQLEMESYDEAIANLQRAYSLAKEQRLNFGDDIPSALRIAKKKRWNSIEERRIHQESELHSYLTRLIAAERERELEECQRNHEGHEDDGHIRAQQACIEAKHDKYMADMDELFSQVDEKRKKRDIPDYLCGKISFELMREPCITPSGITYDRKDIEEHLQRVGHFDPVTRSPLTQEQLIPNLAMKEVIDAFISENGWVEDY
T3 sequence (P02829 whole entry): as the sequence (P02829 whole entry) above

Take “CDC37: Hsp90 co-chaperone of early complex assembly”: the Kd (in general, the free concentration of one partner at which half of the binding sites on the other are occupied at equilibrium, for simple one-to-one binding) with Hsp90 [1] (setting [5]) is 1.59 µM; with Hsp90-LA1011 (setting [6]), 1.3 µM. The “effect of LA1011 on the co-chaperone directed regulation of Hsp90 ATPase activity” value (from here on “effect of LA1011”) with Hsp90 [2] is on record as “unaffected by the presence of LA1011”.

On to “HOP: Hsp90 co-chaperone found in early complexes of the chaperone cycle”, for which the Kd is 0.43 µM in the series with Hsp90 [1] (setting [5]) and 0.3 µM in the series with Hsp90-LA1011 (setting [6]).

“PP5: full-length PP5, phosphatase co-chaperone of Hsp90”: the Kd with Hsp90 [1] (ITC, Hsp90 without LA1011, two-site fit, value listed first in Table 2 and figures, read-out: Kd (two-site fit, first value listed)) is 0.64 µM; with Hsp90 [1] (ITC, Hsp90 without LA1011, two-site fit, value listed second in Table 2 and figures, read-out: Kd (two-site fit, second value listed)), 0.16 µM; with Hsp90-LA1011 (ITC, Hsp90 with 2 mM LA1011, two-site fit, value listed first in Table 2 and figures, read-out: Kd (two-site fit, first value listed)), 9.6 µM; with Hsp90-LA1011 (ITC, Hsp90 with 2 mM LA1011, two-site fit, value listed second in Table 2 and figures, read-out: Kd (two-site fit, second value listed)), 9.2 µM.

Regarding Sti1: the yeast homolog of human HOP, the “effect of LA1011” value with Hsp90 [2] is given as “unaffected by the presence of LA1011”.

Regarding `COC(=O)C1=C(CCN(C)C)N(C)C(CCN(C)C)=C(C(=O)OC)C1c1ccc(C(F)(F)F)cc1.Cl.Cl` [LA1011, dimethyl 4-(4-Trifluoro-methyl-phenyl)-2,6-bis(2-dimethylamino-ethyl)-1-methyl-1-4 dihydropyridine-3-5-dicarboxylate dihydrochloride], the Kd was found to be 19.8 ± 2.2 µM at Hsp90 [3] (1:1 stoichiometric fit, read-out: Kd (1:1)); 28.9 ± 1.7 µM at Hsp90 [3] (2:1 (Hsp90:LA1011) stoichiometric fit, read-out: Kd (2:1)); 58.8 ± 24.2 µM at Hsp90-AMPPNP (1:1 fit, read-out: Kd (1:1)); 73 ± 3.1 µM at Hsp90-AMPPNP (2:1 fit, read-out: Kd (2:1)); 79.4 ± 33.5 µM on Hsp90-FKBP51; 56.2 ± 5.8 µM at Hsp90-FKBP52. Moreover, the Kd on Hsp90-CHIP (1:1 fit, read-out: Kd (1:1)) stood at 56.2 ± 26.2 µM; at Hsp90-CHIP (2:1 fit, read-out: Kd (2:1)), 69 ± 2 µM; on Hsp90-p23-PNP (1:1 fit, read-out: Kd (1:1)) it was 58.8 ± 3.5 µM; on Hsp90-p23-PNP (2:1 fit, read-out: Kd (2:1)), 73 ± 4.5 µM; on Hsp90-Aha1 (1:1 fit, read-out: Kd (1:1)), 118 ± 8 µM; on Hsp90-Aha1 (2:1 fit, read-out: Kd (2:1)) it was 53.2 ± 5.5 µM. Also, the Kd is 4.2 ± 0.8 µM at Hsp90-CDC37 (20 μM Hsp90, 40 μM CDC37, 1:1 fit, read-out: Kd (1:1)); 9.5 ± 2.5 µM on Hsp90-CDC37 (20 μM Hsp90, 40 μM CDC37, 2:1 fit, read-out: Kd (2:1)); 8.2 ± 1 µM at Hsp90-Sgt1; 8.8 ± 1.3 µM on Hsp90-HOP (read-out: Kd (1:1), 1:1 fit); 8.8 ± 1.3 µM on Hsp90-HOP (read-out: Kd (2:1), 2:1 fit); 13.5 µM at Hsp90 [4]. For the same compound, the “effect on Hsp90 ATPase activity” value at Hsp90 [2] is listed as “activators of Hsp90 ATPase activity”. In addition, in the series with APPxPS1 AD mouse model, the “amyloid-beta (Aβ) plaques” value is listed as “decreases”. Also, the dendritic spine density entry with APPxPS1 AD mouse model was “increase in the dendritic spine density”. For the same compound, in the series with APPxPS1 AD mouse model, the heat-shock-response entry is “co-induction of the heat-shock-response”. In the series with APPxPS1 AD mouse model, the neurofibrillary tangles result is on record as “decreases in neurofibrillary tangles”. Also, the neuron number result with APPxPS1 AD mouse model is listed as “increase in neuron number”.

Take “Aha1: yeast Aha1, late-cycle Hsp90 co-chaperone and activator of Hsp90 ATPase activity”: the Kd with Hsp90 [1] (setting [5]) was determined as 2.4 ± 0.2 µM; with Hsp90-LA1011 (setting [6]), 3.3 ± 0.4 µM; with Hsp90-PNP, 1.2 µM; in the series with Hsp90-LA1011-PNP it was 1.8 µM. In addition, the “effect on Hsp90 ATPase activity” value with Hsp90 [2] is “activators of Hsp90 ATPase activity”. The “effect of LA1011” value in the series with Hsp90 [2] is “significantly less Aha1 is required to fully activate Hsp90”.

On to “Hch1: Hsp90 co-chaperone homologous to the N-terminal domain of Aha1”, for which the Kd amounted to 6.9 µM with Hsp90 [1] (setting [5]) and 11.6 µM in the series with Hsp90-LA1011 (setting [6]).

On to “p23: Hsp90 co-chaperone that promotes the closed conformation of Hsp90”, for which the Kd in the series with Hsp90-PNP was 4.2 µM; with Hsp90-LA1011-PNP, 8.9 µM. Further, the “effect of LA1011” value with Hsp90 [2] was “unaffected by the presence of LA1011”.
